Where no end group is shown, it is not given here.
B1: IL-12: Interleukin 12 (protein, UniProt P43431 23-215; P43432 23-335, looked up)
Interleukin-12 subunit alpha: RVIPVSGPARCLSQSRNLLKTTDDMVKTAREKLKHYSCTAEDIDHEDITRDQTSTLKTCLPLELHKNESCLATRETSSTTRGSCLPPQKTSLMMTLCLGSIYEDLKMYQTEFQAINAALQNHNHQQIILDKGMLVAIDELMQSLNHNGETLRQKPPVGEADPYRVKMKLCILLHAFSTRVVTINRVMGYLSSA
Interleukin-12 subunit beta: MWELEKDVYVVEVDWTPDAPGETVNLTCDTPEEDDITWTSDQRHGVIGSGKTLTITVKEFLDAGQYTCHKGGETLSHSHLLLHKKENGIWSTEILKNFKNKTFLKCEAPNYSGRFTCSWLVQRNMDLKFNIKSSSSSPDSRAVTCGMASLSAEKVTLDQRDYEKYSVSCQEDVTCPTAEETLPIELALEARQQNKYENYSTSFFIRDIIKPDPPKNLQMKPLKNSQVEVSWEYPDSWSTPHSYFSLKFFVRIQRKKEKMKETEEGCNQKGAFLVEKTSTEVQCKGGNVCVQAQDRYYNSSCSKWACVPCRVRS
B2: IL-7: interleukin (protein, UniProt P10168 26-154, looked up)
Interleukin-7: ECHIKDKEGKAYESVLMISIDELDKMTGTDSNCPNNEPNFFRKHVCDDTKEAAFLNRAARKLKQFLKMNISEEFNVHLLTVSQGTQTLVNCTSKEEKNVKEQKKNDACFLKRLLREIKTCWNKILKGSI
B3: IL-11: interleukin (protein, UniProt P20809 22-199, looked up)
Interleukin-11: PGPPPGPPRVSPDPRAELDSTVLLTRSLLADTRQLAAQLRDKFPADGDHNLDSLPTLAMSAGALGALQLPGVLTRLRADLLSYLRHVQWLRRAGGSSLKTLEPELGTLQARLDRLLRRLQLLMSRLALPQPPPDPPAPPLAPPSSAWGGIRAAHAILGGLHLTLDWAVRGLLLLKTRL
B4: IL-4: interleukin (protein, UniProt P07750 21-140, looked up)
Interleukin-4: HIHGCDKNHLREIIGILNEVTGEGTPCTEMDVPNVLTATKNTTESELVCRASKVLRIFYLKHGKTPCLKKNSSVLMELQRLFRAFRCLDSSISCTMNESKSTSLKDFLESLKSIMQMDYS
B5: KC: chemokine (protein, UniProt P12850 25-96, looked up)
Growth-regulated alpha protein: APIANELRCQCLQTMAGIHLKNIQSLKVLPSGPHCTQTEVIATLKNGREACLDPEAPLVQKIVQKMLKGVPK
B6: MIP-1α: chemokine (protein, UniProt P10855 24-92, looked up)
C-C motif chemokine 3: APYGADTPTACCFSYSRKIPRQFIVDYFETSSLCSQPGVIFLTKRNRQICADSKETWVQEYITDLELNA

System: Mouse sarcoma 180 cells
Type: cell-based
Details: not given
Description: In one embodiment, a NK cell assay is used to assess ARP-induced cytotoxic activity of NK-like cells. Briefly, by way of example but not limitation, a NK cell assay can be carried out as follows: large granular lymphocytes (LGLs) are co-cultured with tumor cells at various ratios (effector to target ratio) for four days at 37° C., 5% CO2. […] The culture is terminated at the end of day 4 and vitally stained using a MTT cell viability quantification assay (see Mossman, T. J. Immunol. Methods 1983, 65:55; and Sigma Chemical MTT (M5655) product application note). Culture media is aspirated and the remaining cells are washed and replaced with DMEM/F12 plus FCS, containing MTT. The cells are further incubated for 4-5 hours at 37° C. Absorbance is measured with the aid of a plate reader. Decreased absorbance indicated a decrease in the number of viable cells per well (i.e., cytotoxicity). Absorbance is measured again after the MTT is solubilized by replacement of the medium with 2-propanol containing HCl, which gives a uniform color throughout the well. NK-inducing activity is calculated relative to negative (PBS/BSA) and positive (internal standard) controls.
Spleens (10-15 per experiment) were aseptically removed from male Balb/C mice 6-10 weeks of age. Splenocytes were “squeezed” out of spleens using 2 sterile glass microscope slides. Cells were collected in approximately 10 ml of DMEM/F12 containing 10% fetal calf serum (FCS) and gentamicin (50 μg/ml). Single cell suspensions were generated by passing collected cells through a 70 μm nylon mesh screen. After washing the cell pellet once with PBS (centrifuged at 675×g for 5 min), red blood cells were lysed by brief hypotonic shock (i.e. exposure to sterile distilled, deionized water, followed immediately with appropriate volumes of 10×PBS to return to isotonicity). Remaining cells were centrifuged and resuspended in DMEM/F12+10% FCS and transferred to 75 cm^2 flasks each containing 25 mls DMEM/F12+10% FCS (cells from 5 spleens per flask). The cells were incubated for 60 min. at 37° C. to selectively remove readily adherent cells (mainly fibroblasts and macrophages). After the incubation, the flasks were gently shaken and the non-adherent cells were removed, pelleted by centrifugation, and resuspended in DMEM/F12 (no supplements) (1.0 mL/10^8 cells). A 1.0 mL volume of these cell suspensions were carefully layered onto a 70%/60%/40% (2 mL/4 mL/4 mL) Percoll™ gradients in 15 ml centrifuge tubes and centrifuged for 30 min at 675×G. The cells which sediment at the 40/60 interface represent primarily large granular lymphocytes (LGLs), enriched with NK cells. These cells were carefully removed with a pasteur pipet, centrifuged, washed once with PBS and resuspended in approximately 5 mL DMEM/F12 supplemented with gentamicin (50 μg/mL) and 10% fetal calf serum. Cell counts and appropriate dilutions of LGL cells were made with these cells, as described below. For convenience this LGL cell preparation is interchangeably referred to as NK cells.
Mouse sarcoma 180 cells were seeded into 96 well plates at a density of 5×10^3 cells per well in 100 μl DMEM/F12, supplemented with 10% FCS and gentamicin (50 μg/mL). […] NK cells were added in 100 μL of supplemented DMEM/F12 at designated densities: 0 NK cells/well; 5×10^4 NK cells/well (1:10 target/effector ratio); 1.25×10^5 NK cells/well (1:25 target/effector ratio); 2.5×10^5 NK cells/well (1:50 target/effector ratio); and, 5×10^5 NK cells/well (1:100 target/effector ratio). (Note: routinely, only the 1:50 and 1:100 ratios were used for screening purposes. IL2 was added as a media supplement with final concentration of 125 U/mL.). Co-cultures were incubated for 4 days at 37° C., 5% CO2, and terminated and vitally stained using a MTT cell viability quantification assay (see Mossman, T. J. Immunol. Methods 65:55 (1983); and Sigma Chemical MTT (M5655) product application note). […]

Row | Molecule | Effect on NK-CMC (footnotes of Table 16)
1 | B1 | synergistically increases NK-CMC at low concentrations of IL-2

Same assay, conditions: wide range of concentrations, in the presence and absence of IL-2 (125 U/ml)

Row | Molecule | NK-CMC Activity
2 | Magainin II | −
3 | IL-15: interleukin | −
4 | Cecropin P1 | −
5 | TGFα: growth factor | −
6 | Cecropin A: defensin / anti-microbial peptide (KWKLFKKIEKVGQNIRDGIIKAGPAVAVVGQATQIAK; UniProt P01507 27-63, looked up) | −
7 | Cecropin B: defensin / anti-microbial peptide (KWKVFKKIEKMGRNIRNGIVKAGPAIAVLGEAKAL; ends and bridges not checked; UniProt P01508 27-61, looked up) | −
8 | Magainin I | −
9 | JE/MCP-1: chemokine | −
10 | IFNα | −
11 | B2 | −
12 | B3 | −
13 | B4 | −
14 | B5 | −
15 | B6 | −
